# Where a name gives a salt, the structure may show the parent alone.
# Test system: (+)-MK801 binding site of the ionotropic NMDA receptor
# Test: (3H)-(+)-MK801 receptor bonding test on rat cerebral membrane homogenates
# Details: 1 nmol/l (3H)-(+)-MK801, rat brain membrane homogenate; for Percentage inhibition of (3H)-(+)-MK801 binding at 10 μM: 10 μmol/l compound, triple determinations; for Ki: calculated from IC50 by Cheng-Prusoff equation
# Protocol: Research to determine the NMDA antagonistic effect of each compound in general formula I was carried out on cerebral membrane homogenates (homogenate of rat brain without cerebellum, pons and medulla oblongata taken from male Wistar rats (Charles River, Sulzfeld, Germany)).
# For this purpose, after separating the cerebellum, pons and medulla oblongata, freshly prepared rat brains were macerated in 50 mmol/l of tris/HCl (pH 7.7) with a Polytron homogeniser (model PT3000, Kinematika AG, Littau, Switzerland) at 6000 revolutions per minute (rpm) for 1 minute with ice cooling and centrifuged for 15 minutes at 4° C. and 60,000 g. After decanting and discarding the supernatant, again placing in 50 mmol/l of tris/HCl (pH 7.7) and macerating the membrane pellet with a homogeniser at 2000 rpm for 1 minute, it was centrifuged again for 15 minutes at 4° C. and 60,000 g. The supernatant was again discarding and the membrane pellet homogenised (2000 rpm for 1 minute) in 50 mmol/l of tris/HCl (pH 7.7) and frozen in aliquots at −70° C.
# For the receptor bonding test, each aliquot was defrosted and then centrifuged for 15 minutes at 4° C. and 60,000 g. After decanting and discarding the supernatant, the membrane pellet was taken up with bonding test buffer and homogenised (2000 rpm for 1 minute). The bonding test buffer was 5 mmol/l tris/HCl (pH 7.7) supplemented with 30 μmol/l of glycine and 100 μmol/l of glutamic acid.
# 1 nmol/l of (^3H)-(+)-MK801 ((5R, 10S)-(+)-5-methyl-10,11-dihydro-5H-dibenzo(a,d)cycloheptane-5,10-imine was used as a radioactively marked ligand (NET-972, NEN, Cologne Germany). The proportion of unspecific bonding was determined in the presence of 10 μmol/l of non-radioactively marked (+)-MK801 (RBI/Sigma, Deisenhofen, Germany). In further batches, each of the compounds of general formula I were added in series of concentrations and the displacement of the radioactive ligand out of its specific bond to the NMDA receptor determined. All the batches were subjected to triple determinations. The batches were each incubated for 40 minutes at 25° C. in a water bath and then harvested for determination of the radioactive ligand bound to the cerebral membrane homogenate by means of filtration through glass-fibre filters (GF/B) (Whatman GF/B, Hassel, Munich, Germany). The radioactivity retained by the glass-fibre filter discs was measured in a β counter (Packard TRI-CARB Liquid Scintillation Analyser 2000CA, Packard Instrument, Meriden, Conn. 06450, USA) after adding a scintillator (“Ready Protein” scintillator, Beckmann Coulter GmhH, Krefeld, Germany).
# The percentage inhibition of the specific bonding of the ligand (^3H)-(+)-MK801 in the presence of 10 μmol/l of each compound of general formula I resulting from the triple batches is used as a measure of the affinity of the compound for the (+)-MK801 binding site of the ionotropic NMDA receptor. From batches with concentration series of these compounds of general formula I, the IC50 values (concentration of substituted compounds with 50% displacement of radioactive ligand out of its specific bond) were calculated in accordance with the law of mass action using non-linear regression. From these IC50 values, the Kj values were calculated in accordance with the Cheng-Prusoff equation (Y. Cheng, W. H. Prusoff, 1973, Biochem. Pharmacol., 22, pp 3099-3108).
SMILES,"Percentage inhibition of (3H)-(+)-MK801 binding at 10 μM (hydrochloride, 10 µM) [%]",Ki (hydrochloride) [nM],Percentage inhibition of (3H)-(+)-MK801 binding at 10 μM [%],Ki [nM]
"Cc1ccccc1C(C1CCCCC1(O)CCc1ccccc1Cl)N(C)C (single isomer, unassigned; (+)) [Example 49, (+)-15-1-[2-(2-chlorophenyl)ethyl]-2-(dimethylamino-o-tolylmethylcyclohexanol), hydrochloride]",93,1300,–,–
"CN(C)C(c1ccccc1)C1CCCCC1(O)CCCc1ccccc1.Cl (single isomer, unassigned; (+)) [Example 51, (+)-2-(dimethylaminophenylmethyl)-1-(3-phenylpropyl)cyclohexanol, hydrochloride]",80,2300,–,–
"CN(C)C(c1ccccc1Cl)C1CCCCC1(O)CCc1ccccc1F.Cl (single isomer, unassigned; (+)) [Example 53, (+)-2-[(2-chlorophenyl)dimethylaminomethyl]-1-[2-(2-fluorophenyl)ethyl]cyclohexanol, hydrochloride]",104,500,–,–
"Cc1ccccc1C(C1CCCCC1(O)CCc1ccccc1Cl)N(C)C (single isomer, unassigned; (-)) [Example 48, (−)-15-1-[2-(2-chlorophenyl)ethyl]-2-(dimethylamino-o-tolylmethylcyclohexanol), hydrochloride]",99,400,–,–
"CN(C)C(c1ccccc1)C1CCCCC1(O)CCCc1ccccc1.Cl (single isomer, unassigned; (-)) [Example 50, (−)-2-(dimethylaminophenylmethyl)1-(3-phenylpropyl)cyclohexanol, hydrochloride]",87,600,–,–
"CN(C)C(c1ccccc1Cl)C1CCCCC1(O)CCc1ccccc1F.Cl (single isomer, unassigned; (-)) [Example 52, (−)-2-[(2-chlorophenyl)dimethylaminomethyl]-1-[2-(2-fluorophenyl)ethyl]cyclohexanol, hydrochloride]",105,200,–,–
"Cc1ccccc1C(C1CCCCC1(O)CCc1cccc(Cl)c1)N(C)C.Cl (centres unmarked) [Example 16, 1-[2-(3-chlorophenyl)ethyl]-2-(dimethylamino-o-tolylmethyl)cyclohexanol, hydrochloride]",92,1900,–,–
"CN(C)C(c1ccccc1F)C1CCCCC1(O)CCc1ccc(F)cc1.Cl (centres unmarked) [Example 17, 2-[dimethylamino-(2-fluorophenyl)methyl]-1-[2-(4-fluorophenyl)ethyl]cyclohexanol, hydrochloride]",–,–,54,5800
"Cc1ccccc1C(C1CCCCC1(O)CCc1ccc(F)cc1)N(C)C.Cl (centres unmarked) [Example 18, 2-(dimethylamino-o-tolylmethyl)-1-[2-(4-fluorophenyl)ethyl]cyclohexanol, hydrochloride]",–,–,54,6100
"Cc1cccc(C(C2CCCCC2(O)CCc2ccccc2Cl)N(C)C)c1.Cl (centres unmarked) [Example 20, 1-[2-(2-chlorophenyl)ethyl]-2-(dimethylamino-m-tolylmethyl)cyclohexanol, hydrochloride]",–,–,62,4300
"CN(C)C(c1ccccc1F)C1CCCCC1(O)CCc1cccc(Cl)c1.Cl (centres unmarked) [Example 21, 1-[2-(3-chlorophenyl)ethyl]-2-(dimethylamino-(2-fluorophenyl)methyl]cyclohexanol, hydrochloride]",–,–,90,2100
"CN(C)C(c1cccc(F)c1)C1CCCCC1(O)CCc1ccccc1Cl.Cl (centres unmarked) [Example 22, 1-[2-(2-chlorophenyl)ethyl]-2-(dimethylamino-(3-fluorophenyl)methyl]cyclohexanol, hydrochloride]",–,–,74,3000
"Cc1ccccc1C(C1CCCCC1(O)CCc1ccccc1Cl)N1CCOCC1.Cl (centres unmarked) [Example 24, 1-[2-(2-chlorophenyl)ethyl]-2-(morpholine-4-yl-o-tolylmethyl)cyclohexanol, hydrochloride]",–,–,48,3700
"Cc1ccccc1C(C1CCCCC1(O)CCc1ccccc1Cl)N1CCCCC1.Cl (centres unmarked) [Example 25, 1-[2-(2-chlorophenyl)ethyl]-2-(piperidine-1-yl-o-tolylmethyl)cyclohexanol, hydrochloride]",–,–,89,1400
"Cc1ccccc1C(C1CCCCC1(O)CCc1cccc(Cl)c1)N(C)C.Cl (centres unmarked) [Example 26, 1-[2-(3-chlorophenyl)ethyl]-2-(dimethylamino-o-tolylmethyl)cyclohexanol, hydrochloride]",89,1300,–,–
"CN(C)C(c1ccccc1C(F)(F)F)C1CCCCC1(O)CCc1ccccc1.Cl (centres unmarked) [Example 27, 2-[dimethylamino-(2-trifluoromethylphenyl)methyl]-1-phenethylcyclohexanol, hydrochloride]",–,–,67,4200
"COc1ccccc1C(C1CCCCC1(O)CCc1ccccc1F)N(C)C.Cl (centres unmarked) [Example 28, 2-[dimethylamino-(2-methoxyphenyl)methyl]-1-[2-(2-fluorophenyl)ethyl]cyclohexanol, hydrochloride]",–,–,82,2500
"CN(C)C(c1ccccc1F)C1CCCCC1(O)CCc1ccccc1F.Cl (centres unmarked) [Example 29, 2-[dimethylamino-(2-fluorophenyl)methyl]-1-[2-(2-fluorophenyl)ethyl]cyclohexanol, hydrochloride]",–,–,104,300
"Cc1ccccc1C(C1CCCCC1(O)CCc1ccccc1F)N(C)C.Cl (centres unmarked) [Example 30, 2-(dimethylamino-o-tolylmethyl)-1-[2-(2-fluorophenyl)ethyl]cyclohexanol, hydrochloride]",–,–,105,300
"Cc1ccccc1C(C1CCCCC1(O)CCc1ccccc1F)N1CCCC1.Cl (centres unmarked) [Example 31, 1-[2-(2-fluorophenyl)ethyl]-2-(pyrrolidine-1-yl-o-tolylmethyl)cyclohexanol, hydrochloride]",–,–,99,100
"CN(C)C(c1ccccc1Br)C1CCCCC1(O)CCc1ccccc1Cl.Cl (centres unmarked) [Example 32, 2-[(2-bromophenyl)dimethylaminomethyl]-1-[2-(2-chlorophenyl)ethyl]cyclohexanol, hydrochloride]",–,–,96,700
"CN(C)C(c1ccccc1Cl)C1CCCCC1(O)CCc1ccccc1Cl.Cl (centres unmarked) [Example 33, 2-[(2-chlorophenyl)dimethylaminomethyl]-1-[2-(2-chlorophenyl)ethyl]cyclohexanol, hydrochloride]",–,–,93,600
"CN(C)C(c1ccccc1Br)C1CCCCC1(O)CCc1ccccc1F.Cl (centres unmarked) [Example 34, 2-[(2-bromophenyl)dimethylaminomethyl]-1-[2-(2-fluorophenyl)ethyl]cyclohexanol, hydrochloride]",–,–,95,400
"Cc1ccccc1CCC1(O)CCCCC1C(c1ccccc1Cl)N(C)C.Cl (centres unmarked) [Example 35, 2-[(2-chlorophenyl)dimethylaminomethyl]-1-(2-o-tolylethyl)cyclohexanol, hydrochloride]",–,–,93,1800
"CN(C)C(c1ccccc1Cl)C1CCCCC1(O)CCCc1ccccc1.Cl (centres unmarked) [Example 36, 2-[(2-chlorophenyl)dimethylaminomethyl]-1-(3-phenylpropyl)cyclohexanol, hydrochloride]",–,–,85,1900

# From patent US6784175B2, “Use of substituted 1-amino-5-phenylpentane-3-ol and/or 1-amino-6-phenylhexane-3-ol compounds as medicaments” (Gruenenthal GmbH, priority 2000, dated 2004)
